Reference: PMC5729604, “Dual inhibitors of hepatitis C virus and hepatocellular carcinoma: design, synthesis and docking studies” (Future Science OA, 2017)
Values after ≈ are worked out from the molar mass of the structure shown. Values joined by “and” are separate entries in the source; they are usually repeats but may differ in a detail not shown here. Identical values can stand only once. Like-named read-outs stand apart in the source and are kept apart here.

What was measured:
[1] = system: human HCC cell line HepG2; test: cells; assay type: cell-based; conditions: for IC50: Homo sapiens, HepG2, 72 h; for in vitro anticancer activity against HepG2, in words: IC50 <100 μg/ml potential, 100-1000 μg/ml moderate; for (LD0) HepG2 / Safe doses (100% viability of HepG2) LD0: human
Experimental: The safe compounds on RBCs (5a-g, 5i-l, 5p-r, 5v-w, 6b-g) were screened for their potential anticancer activity against human HCC cell line HepG2. HepG2 cells were exposed to the test compounds, then viability of cells was measured using neutral red uptake assay as described by Borenfreund and Puerner. This assay depends on the fact that neutral red dye can be incorporated into the lysosomes of living cells providing a quantitative assay to the cytotoxic effects. The results were interpreted to calculate both the concentration causing 50% cancer cell death (IC50) of each compound and the maximum safe concentration that cause 100% viability (LD0; to be used in the in vitro anti-HCV testing) using GraphPad InStat 3.0 software (Figure 5 & Supplementary Table 2).
HepG2 cells were routinely maintained as adherent cell cultures in RPMI-1640 medium (Lonza Group Ltd, Basel, Switzerland) supplemented with 10% fetal bovine serum (FBS; Lonza, IL, USA) at 37°C in a humidified air incubator containing 5% CO2. Cells were subcultured for 2 weeks before assay. Cell viability was assessed using trypan blue exclusion method.
HepG2 cells were washed twice in RPMI-1640 medium supplemented with 200 μM L-glutamine (Lonza) and […] 4-(2-hydroxyethyl)-1-piperazineethanesulfonic acid (HEPES) buffer (Lonza). The cells were suspended at 3 × 10^4 cells/ml in RPMI culture medium (RPMI supplemented medium and 10% FBS). The appropriate number of cells was chosen to be 3 × 10^3 cells/well (100 μl of the prepared suspension), and the cells were left to adhere on the polystyrene 96-well plates in an incubator at 37°C, 5% CO2 and 95% humidity for 24 h. The cells were washed once using RPMI supplemented medium.
A 2 mg/ml stock solution of each compound was prepared in DMF and filtered using a 0.2 μM syringe filter. The desired concentrations (20, 10, 5, 2.5 and 1.25 μg/ml) were prepared using serial dilution in a 96-well plate. Compound wells were prepared by adding 100 μl of the previously prepared concentrations to a 100 μl of HepG2 cells suspension. Parallel concentrations of the solvent were prepared to be used as controls. 5-Fluorouracil was used as a positive control. Control wells were prepared by adding 100 μl culture media to a 100 μl of HepG2 cells suspension. Blank wells contained 200 μl of culture media only (without cells or compound solution). Each set of samples was pipetted in duplicate. The plate was gently shaken, then incubated at 37°C, 5% CO2 for 72 h.
After incubation, the plate was centrifuged (2000 r.p.m. for 10 min). The media were discarded by inversion over paper towels. A working solution (100 μg/ml) of neutral red stain (Bio Basic Inc, Markham, Canada) was prepared, and 100 μl of this solution was added to each well, then the plate was gently shaken. The plate was incubated at 37°C in humidified 5% CO2 for 3 h, and then centrifuged (2000 r.p.m. for 10 min). Excess dyes were discarded, and the cells were fixed with 100 μl fixing solution (0.5% formalin with 1% calcium chloride [Sigma-Aldrich]) for 1 min. Cells were destained in 100 μl destaining solution (50% ethanol with 1% glacial acetic acid [Sigma-Aldrich]) for 5 min by shaking. The stain intensity was assayed using automated microplate reader spectrophotometer adjusted at 490 nm. Surviving cell fraction was calculated according to the following equation: [drawing 3]
The results were interpreted to calculate both the concentration causing 50% cancer cell death (IC50) of each compound and the maximum safe concentration that cause 100% viability (LD0; to be used in the in vitro anti-HCV testing) using GraphPad InStat 3.0 software.

[2] = system: human peripheral blood mononuclear cells (PBMCs); assay type: cell-based; conditions: 72 h
Experimental: The safe compounds on RBCs (5a-g, 5i-l, 5p-r, 5v-w, 6b-g) were subjected to the in vitro cytotoxicity assay on human peripheral blood mononuclear cells (PBMCs). Viability of cells was measured using neutral red uptake assay as described by Borenfreund and Puerner to determine the concentrations of each compound that were not cytotoxic. The results were interpreted to calculate both the lethal concentration that kills 50% of cells (LD50) and the maximum safe concentration that causes 100% viability (LD0) of each compound using GraphPad InStat 3.0 software (Figure 6 & Supplementary Table 3).
The PBMCs were isolated by density gradient centrifugation technique as described by Boyum. Blood samples were freshly collected into heparinized or ethylenediaminetetraacetic acid sterile tubes. Blood was diluted using equal volume of RPMI-1640 medium containing 25 mM HEPES and then layered over equal volume of Ficoll-Pague™ Plus (Fisher BioReagents™ Lymphocyte Separation Medium-LSM, PA, USA) and centrifuged (2000 r.p.m. for 30 min at acceleration and deceleration speeds zero & zero) at room temperature. The buffy mononuclear cell layer was collected using sterile Pasteur pipette into 50 ml sterile Falcon tube and washed twice in phosphate-buffered saline (Sigma-Aldrich) using centrifugation (1650 r.p.m. for 5 min). The isolated PBMCs viability was determined by hemocytometer count using the trypan blue exclusion method. The PBMCs were resuspended at 1 × 10^6 cells/ml in RPMI-1640 medium containing 25 mM HEPES supplemented with 10% heat-inactivated FBS. The appropriate number of cells was chosen to be 1 × 10^5 cells/well (100 μl of the prepared suspension).
A 2 mg/ml stock solution of each compound was prepared in DMF and filtered using a 0.2 μM syringe filter. The desired concentrations (20, 10, 5, 2.5 and 1.25 μg/ml) were prepared using serial dilution in a 96-well plate. Compound wells were prepared by adding 100 μl of the previously prepared concentrations to a suspension of 1 × 10^5 PBMCs in 100 μl culture media. Parallel concentrations of the solvent were prepared to be used as controls. Control wells were prepared by adding 100 μl culture media to a suspension of 1 × 10^5 PBMCs in 100 μl culture media. Blank wells contained 200 μl of culture media only (without cells or compound solution). Each set of samples was pipetted in duplicate. The plate was then gently shaken then incubated at 37°C, 5% CO2 for 72 h.
After incubation, neutral red assay was performed as described previously, and surviving cell fraction was calculated according to the previously mentioned equation. Also, the results were interpreted to calculate both the lethal concentration that kills 50% of cells (LD50) and the maximum safe concentration that cause 100% viability (LD0) of each compound using GraphPad InStat 3.0 software.

[3] = 72 h, neutral red, Table 1, read-out: IC50 (HepG2)
[4] = LD50 on normal cells / IC50 on cancer cells, larger than three = highly selective
[5] = 72 h, neutral red, Supplementary Table 2, read-out: Anticancer (HepG2) IC50

Compound | IC50 against HepG2 cells ([1]; 72 h, neutral red) | IC100, concentration that killed 100% of cancer cells ([1]; HepG2, calculated with GraphPad InStat) | IC50 [1, 3] | IC50 ([1]; 72 h, neutral red, read-out: IC50 against HepG2 cells) | in vitro anticancer activity against HepG2, in words [1] | Selectivity index [1, 4] | (LD0) HepG2 ([1]; 72 h) | Safe doses (100% viability of HepG2) LD0 ([1]; 72 h) | (LD0) PBMCs [2] | LD0 [2] | LD50 [2] | LD50 (PBMCs) [2] | IC50 [1, 5] | LD0 on PBMCs [2] | Selectivity index ([1]; LD50 on PBMC / IC50 on HepG2)
CC(=NN=C1SC(=Cc2cn(-c3ccccc3)nc2-c2ccc(Cl)cc2)C(=O)N1c1ccc(Cl)cc1)c1nc2ccccc2[nH]1 [Compound 5q, 2-[1-(1H-Benzimidazole-2-yl)ethylidenehydrazono]-5-{[3-(4-chlorophenyl)-1-phenyl-1H-pyrazol-4-yl]methylene}-3-(4-chlorophenyl)thiazolidin-4-one] | < 100 µg/mL | 94.54 µg/mL and < 100 µg/mL | 35.7 µg/mL (≈ 55.1 µM) | < 50 µg/mL | potential in vitro anticancer activity | larger than three | 23.12 µg/mL | 23.12 µg/mL | 190.45 µg/mL | 190.45 µg/mL | 1246.96 µg/mL | 1246.96 µg/mL |  |  | 
CC(=NN=C1SC(=C2C(=O)Nc3ccccc32)C(=O)N1c1ccc(Cl)cc1)c1nc2ccccc2[nH]1 [Compound 6f, 2-[1-(1H-Benzimidazole-2-yl)ethylidenehydrazono]-5-(2-oxoindolin-3-ylidene)-3-(4-chlorophenyl)thiazolidin-4-one] |  |  |  |  |  |  | 35.33 µg/mL | 35.33 µg/mL | 253.34 µg/mL | 253.34 µg/mL | 1369.42 µg/mL |  | 154 µg/mL (≈ 300 µM) | relatively high LD0 values | 
COc1ccc(-c2nn(-c3ccccc3)cc2C=C2SC(=NN=C(C)c3cc4ccccc4o3)N(c3ccc(Cl)cc3)C2=O)cc1 [Compound 5f, 2-[1-(Benzofuran-2-yl)ethylidenehydrazono]-5-{[3-(4-methoxyphenyl)-1-phenyl-1H-pyrazol-4-yl]methylene}-3-(4-chlorophenyl)thiazolidin-4-one] |  |  | 69.4 µg/mL (≈ 108 µM) |  | potential in vitro anticancer activity | larger than three | 10.39 µg/mL | 10.39 µg/mL | 5.83 µg/mL | 5.83 µg/mL | 259.71 µg/mL | 259.71 µg/mL |  |  | 3.74
CC(=NN=C1SC(=Cc2cn(-c3ccccc3)nc2-c2ccccc2)C(=O)N1C1CCCCC1)c1nc2ccccc2[nH]1 [Compound 5v, 2-[1-(1H-Benzimidazole-2-yl)ethylidenehydrazono]-5-[(1,3-Diphenyl-1H-pyrazol-4-yl)methylene]-3-cyclohexylthiazolidin-4-one] |  |  |  |  |  |  | 30.89 µg/mL | 30.89 µg/mL | 13.85 µg/mL | 13.85 µg/mL | 43.40 µg/mL |  | 250 µg/mL (≈ 427 µM) |  | 
COc1ccc(N2C(=O)C(=C3C(=O)Nc4ccccc43)SC2=NN=C(C)c2cc3ccccc3o2)cc1 [Compound 6c, 2-[1-(Benzofuran-2-yl)ethylidenehydrazono]-5-(2-oxoindolin-3-ylidene)-3-(4-methoxyphenyl)thiazolidin-4-one] |  |  | 76.8 µg/mL (≈ 151 µM) |  | potential in vitro anticancer activity |  | 3.40 µg/mL | 3.40 µg/mL | 11.41 µg/mL | 11.41 µg/mL | 28.67 µg/mL | 28.67 µg/mL |  |  | 0.37
CC(=NN=C1SC(=Cc2cn(-c3ccccc3)nc2-c2ccc(Cl)cc2)C(=O)N1c1ccccc1)c1cc2ccccc2o1 [Compound 5b, 2-[1-(Benzofuran-2-yl)ethylidenehydrazono]-5-{[3-(4-chlorophenyl)-1-phenyl-1H-pyrazol-4-yl]methylene}-3-phenylthiazolidin-4-one] |  |  |  |  |  |  | 23.02 µg/mL | 23.02 µg/mL | 5.83 µg/mL | 5.83 µg/mL | 92.27 µg/mL |  | 120 µg/mL (≈ 195 µM) |  | 
